Results from US10131652B2, “Pyrimidinyloxy benzene derivatives as herbicides” (E. I. DU PONT DE NEMOURS AND COMPANY, priority 2014, dated 2018).

Legend:
Assay type in all cases: in vivo
[1] = tested on: blackgrass (Alopecurus myosuroides); test: Test B postemergence plant response
Description: (§1) At the same time, plants selected from these crop and weed species and also blackgrass (Alopecurus myosuroides), and galium (catchweed bedstraw, Galium aparine) were planted in pots containing the same blend of loam soil and sand and treated with postemergence applications of test chemicals formulated in the same manner. Plants ranged in height from 2 to 10 cm and were in the one- to two-leaf stage for the postemergence treatment. Treated plants and untreated controls were maintained in a greenhouse for approximately 10 days, after which time all treated plants were compared to untreated controls and visually evaluated for injury. Plant response ratings, summarized in Table B, are based on a 0 to 100 scale where 0 is no effect and 100 is complete control. A dash (-) response means no test result.

[2] = tested on: galium (catchweed bedstraw, Galium aparine); test: Test B postemergence plant response
Description: as §1

[3] = tested on: wheat (Triticum aestivum); test: Test B pre-/postemergence plant response
Description: as §1, with “Seeds of plant species selected from bamyardgrass (Echinochloa crus-galli), kochia (Kochia scoparia), ragweed (common ragweed, Ambrosia elatior), Italian ryegrass (Lolium multiflorum), large (Lg) crabgrass (Digitaria sanguinalis), giant foxtail (Setaria faberii), momingglory (Ipomoea spp.), pigweed (Amaranthus retroflexus), velvetleaf (Abutilon theophrasti), wheat (Triticum aestivum), and corn (Zea mays) were planted into a blend of loam soil and sand and treated preemergence with a directed soil spray using test chemicals formulated in a non-phytotoxic solvent mixture which included a surfactant. At” for “At”

[4] = tested on: ragweed (common ragweed, Ambrosia elatior); test: Test B pre-/postemergence plant response
Description: as §1, with “Seeds of plant species selected from bamyardgrass (Echinochloa crus-galli), kochia (Kochia scoparia), ragweed (common ragweed, Ambrosia elatior), Italian ryegrass (Lolium multiflorum), large (Lg) crabgrass (Digitaria sanguinalis), giant foxtail (Setaria faberii), momingglory (Ipomoea spp.), pigweed (Amaranthus retroflexus), velvetleaf (Abutilon theophrasti), wheat (Triticum aestivum), and corn (Zea mays) were planted into a blend of loam soil and sand and treated preemergence with a directed soil spray using test chemicals formulated in a non-phytotoxic solvent mixture which included a surfactant. At” for “At”

kochia (Kochia scoparia) = test: Test B pre-/postemergence plant response
Description: as §1, with “Seeds of plant species selected from bamyardgrass (Echinochloa crus-galli), kochia (Kochia scoparia), ragweed (common ragweed, Ambrosia elatior), Italian ryegrass (Lolium multiflorum), large (Lg) crabgrass (Digitaria sanguinalis), giant foxtail (Setaria faberii), momingglory (Ipomoea spp.), pigweed (Amaranthus retroflexus), velvetleaf (Abutilon theophrasti), wheat (Triticum aestivum), and corn (Zea mays) were planted into a blend of loam soil and sand and treated preemergence with a directed soil spray using test chemicals formulated in a non-phytotoxic solvent mixture which included a surfactant. At” for “At”

[5] = tested on: barnyardgrass (Echinochloa crus-galli); test: Test B pre-/postemergence plant response
Description: as §1, with “Seeds of plant species selected from bamyardgrass (Echinochloa crus-galli), kochia (Kochia scoparia), ragweed (common ragweed, Ambrosia elatior), Italian ryegrass (Lolium multiflorum), large (Lg) crabgrass (Digitaria sanguinalis), giant foxtail (Setaria faberii), momingglory (Ipomoea spp.), pigweed (Amaranthus retroflexus), velvetleaf (Abutilon theophrasti), wheat (Triticum aestivum), and corn (Zea mays) were planted into a blend of loam soil and sand and treated preemergence with a directed soil spray using test chemicals formulated in a non-phytotoxic solvent mixture which included a surfactant. At” for “At”

[6] = tested on: pigweed (Amaranthus retroflexus); test: Test B pre-/postemergence plant response
Description: as §1, with “Seeds of plant species selected from bamyardgrass (Echinochloa crus-galli), kochia (Kochia scoparia), ragweed (common ragweed, Ambrosia elatior), Italian ryegrass (Lolium multiflorum), large (Lg) crabgrass (Digitaria sanguinalis), giant foxtail (Setaria faberii), momingglory (Ipomoea spp.), pigweed (Amaranthus retroflexus), velvetleaf (Abutilon theophrasti), wheat (Triticum aestivum), and corn (Zea mays) were planted into a blend of loam soil and sand and treated preemergence with a directed soil spray using test chemicals formulated in a non-phytotoxic solvent mixture which included a surfactant. At” for “At”

corn (Zea mays) = test: Test B pre-/postemergence plant response
Description: as §1, with “Seeds of plant species selected from bamyardgrass (Echinochloa crus-galli), kochia (Kochia scoparia), ragweed (common ragweed, Ambrosia elatior), Italian ryegrass (Lolium multiflorum), large (Lg) crabgrass (Digitaria sanguinalis), giant foxtail (Setaria faberii), momingglory (Ipomoea spp.), pigweed (Amaranthus retroflexus), velvetleaf (Abutilon theophrasti), wheat (Triticum aestivum), and corn (Zea mays) were planted into a blend of loam soil and sand and treated preemergence with a directed soil spray using test chemicals formulated in a non-phytotoxic solvent mixture which included a surfactant. At” for “At”

[7] = tested on: Italian ryegrass (Lolium multiflorum); test: Test B pre-/postemergence plant response
Description: as §1, with “Seeds of plant species selected from bamyardgrass (Echinochloa crus-galli), kochia (Kochia scoparia), ragweed (common ragweed, Ambrosia elatior), Italian ryegrass (Lolium multiflorum), large (Lg) crabgrass (Digitaria sanguinalis), giant foxtail (Setaria faberii), momingglory (Ipomoea spp.), pigweed (Amaranthus retroflexus), velvetleaf (Abutilon theophrasti), wheat (Triticum aestivum), and corn (Zea mays) were planted into a blend of loam soil and sand and treated preemergence with a directed soil spray using test chemicals formulated in a non-phytotoxic solvent mixture which included a surfactant. At” for “At”

[8] = tested on: giant foxtail (Setaria faberii); test: Test B pre-/postemergence plant response
Description: as §1, with “Seeds of plant species selected from bamyardgrass (Echinochloa crus-galli), kochia (Kochia scoparia), ragweed (common ragweed, Ambrosia elatior), Italian ryegrass (Lolium multiflorum), large (Lg) crabgrass (Digitaria sanguinalis), giant foxtail (Setaria faberii), momingglory (Ipomoea spp.), pigweed (Amaranthus retroflexus), velvetleaf (Abutilon theophrasti), wheat (Triticum aestivum), and corn (Zea mays) were planted into a blend of loam soil and sand and treated preemergence with a directed soil spray using test chemicals formulated in a non-phytotoxic solvent mixture which included a surfactant. At” for “At”

[9] = tested on: barnyardgrass (Echinochloa crus-galli); test: Test C flooded paddy test plant response; conditions: Flood, 250 g ai/ha; scale of 0 to 100 where 0 is no effect and 100 is complete control; 13 to 15 days
Method: (§2) Plant species in the flooded paddy test selected from rice (Oryza sativa), small-flower umbrella sedge (Cyperus difformis), ducksalad (Heteranthera limosa), and bamyardgrass (Echinochloa crus-galli) were grown to the 2-leaf stage for testing. At time of treatment, test pots were flooded to 3 cm above the soil surface, treated by application of test compounds directly to the paddy water, and then maintained at that water depth for the duration of the test. Treated plants and controls were maintained in a greenhouse for 13 to 15 days, after which time all species were compared to controls and visually evaluated. Plant response ratings, summarized in Table C, are based on a scale of 0 to 100 where 0 is no effect and 100 is complete control. A dash (-) response means no test result.

rice (Oryza sativa) = test: Test C flooded paddy test plant response; conditions: Flood, 250 g ai/ha; scale of 0 to 100 where 0 is no effect and 100 is complete control; 13 to 15 days
Method: as §2

[10] = tested on: small-flower umbrella sedge (Cyperus difformis); test: Test C flooded paddy test plant response; conditions: Flood, 250 g ai/ha; scale of 0 to 100 where 0 is no effect and 100 is complete control; 13 to 15 days
Method: as §2

[11] = tested on: ducksalad (Heteranthera limosa); test: Test C flooded paddy test plant response; conditions: Flood, 250 g ai/ha; scale of 0 to 100 where 0 is no effect and 100 is complete control; 13 to 15 days
Method: as §2

[12] = 125 g ai/ha, postemergence, 0 to 100 scale, 0 no effect, 100 complete control
[13] = Postemergence, 500 g ai/ha, 0 to 100 scale (0 no effect, 100 complete control)
[14] = Preemergence, 125 g ai/ha, 0 to 100 scale where 0 is no effect and 100 is complete control
[15] = Preemergence, 500 g ai/ha, 0 to 100 scale where 0 is no effect and 100 is complete control
[16] = 31 g ai/ha, Postemergence, 0 to 100 scale, 0 no effect, 100 complete control
[17] = Preemergence, 31 g ai/ha, 0 to 100 scale (0 no effect, 100 complete control)

Row | SMILES | Plant response rating, Blackgrass [1, 12] | Plant response rating, Galium [2, 12] | Plant response rating, Wheat [3, 12] | Plant response rating, Ragweed [4, 12] | Plant response rating, Ragweed [4, 14] | Plant response rating, Kochia (kochia (Kochia scoparia); [12]) | Plant response rating, Kochia (kochia (Kochia scoparia); [14]) | Plant response rating, Barnyardgrass [5, 12] | Plant response rating, Barnyardgrass [5, 14] | Plant response rating, Pigweed [6, 12] | Plant response rating, Pigweed [6, 14] | Plant response rating, Corn (corn (Zea mays); [12]) | Plant response rating, Ryegrass, Italian [7, 12] | Plant response rating, Ryegrass, Italian [7, 14] | Plant response rating, Foxtail, Giant [8, 12] | Plant response rating, Foxtail, Giant [8, 14] | Barnyardgrass plant response rating [9] | Rice plant response rating (rice (Oryza sativa)) | Sedge, Umbrella plant response rating [10] | Ducksalad plant response rating [11] | also measured
1 | Cn1nncc1-c1ccccc1Oc1ncc(Cl)cn1 [Compound 52] | 0 | 40 | 0 | 20 | 0 | 20 | 0 | 0 | 0 | 30 | 40 | 0 | 0 | 0 | 0 | 0 | 0 | 0 | 0 | 0 | Plant response rating, Blackgrass [1, 13]: 10; Plant response rating, Galium [2, 13]: 50; Plant response rating, Wheat [3, 13]: 20; Plant response rating, Ragweed [4, 13]: 20; Plant response rating, Ragweed [4, 15]: 0; Plant response rating, Kochia (kochia (Kochia scoparia); [13]): 50; Plant response rating, Kochia (kochia (Kochia scoparia); [15]): 30; Plant response rating, Barnyardgrass [5, 13]: 10; Plant response rating, Barnyardgrass [5, 15]: 0; Plant response rating, Pigweed [6, 13]: 60; Plant response rating, Pigweed [6, 15]: 50; Plant response rating, Corn (corn (Zea mays); [13]): 10; Plant response rating, Ryegrass, Italian [7, 13]: 0; Plant response rating, Ryegrass, Italian [7, 15]: 0; Plant response rating, Foxtail, Giant [8, 13]: 0; Plant response rating, Foxtail, Giant [8, 15]: 0
2 | CC(C)(C)c1cc(-c2ccccc2Oc2ncc(Cl)cn2)no1 [Compound 59] | 0 | 40 | 0 | 0 | 0 | 0 | 0 | 10 | 0 | 40 | 0 | 0 | 0 | 0 | 10 | 10 | 0 | 0 | 0 | 0 | Plant response rating, Blackgrass [1, 13]: 40; Plant response rating, Galium [2, 13]: 90; Plant response rating, Wheat [3, 13]: 10; Plant response rating, Ragweed [4, 13]: 0; Plant response rating, Ragweed [4, 15]: 0; Plant response rating, Kochia (kochia (Kochia scoparia); [13]): 20; Plant response rating, Kochia (kochia (Kochia scoparia); [15]): 0; Plant response rating, Barnyardgrass [5, 13]: 10; Plant response rating, Barnyardgrass [5, 15]: 10; Plant response rating, Pigweed [6, 13]: 50; Plant response rating, Pigweed [6, 15]: 30; Plant response rating, Corn (corn (Zea mays); [13]): 10; Plant response rating, Ryegrass, Italian [7, 13]: 0; Plant response rating, Ryegrass, Italian [7, 15]: 0; Plant response rating, Foxtail, Giant [8, 13]: 50; Plant response rating, Foxtail, Giant [8, 15]: 60
3 | Cc1nc(-c2ccccc2Oc2ncc(Cl)cn2)co1 [Compound 70] | 0 | 0 | 0 | 0 | 0 | 0 | 0 | 0 | 0 | 20 | 0 | 0 | 0 | 0 | 0 | 0 | 0 | 0 | 0 | 0 | Plant response rating, Blackgrass [1, 16]: 0; Plant response rating, Galium [2, 16]: 0; Plant response rating, Wheat [3, 16]: 0; Plant response rating, Ragweed [4, 16]: 0; Ragweed plant response rating [4, 17]: 0; Plant response rating, Kochia (kochia (Kochia scoparia); [16]): 0; Kochia plant response rating (kochia (Kochia scoparia); [17]): 0; Plant response rating, Barnyardgrass [5, 16]: 0; Barnyardgrass plant response rating [5, 17]: 0; Plant response rating, Pigweed [6, 16]: 10; Pigweed plant response rating [6, 17]: 0; Plant response rating, Corn (corn (Zea mays); [16]): 0; Plant response rating, Ryegrass, Italian [7, 16]: 0; Ryegrass, Italian plant response rating [7, 17]: 0; Plant response rating, Foxtail, Giant [8, 16]: 0; Foxtail, Giant plant response rating [8, 17]: 0
4 | CC(C)n1cnc(-c2ccccc2Oc2ncc(Cl)cn2)n1 [Compound 73] | 0 | 10 | 0 | 0 | 0 | 0 | 0 | 0 | 0 | 10 | 0 | 0 | 0 | 0 | 0 | 0 | 0 | 0 | 0 | 0 | Plant response rating, Blackgrass [1, 16]: 0; Plant response rating, Galium [2, 16]: 0; Plant response rating, Wheat [3, 16]: 0; Plant response rating, Ragweed [4, 16]: 0; Ragweed plant response rating [4, 17]: 0; Plant response rating, Kochia (kochia (Kochia scoparia); [16]): 0; Kochia plant response rating (kochia (Kochia scoparia); [17]): 0; Plant response rating, Barnyardgrass [5, 16]: 0; Barnyardgrass plant response rating [5, 17]: 0; Plant response rating, Pigweed [6, 16]: 0; Pigweed plant response rating [6, 17]: 0; Plant response rating, Corn (corn (Zea mays); [16]): 0; Plant response rating, Ryegrass, Italian [7, 16]: 0; Ryegrass, Italian plant response rating [7, 17]: 0; Plant response rating, Foxtail, Giant [8, 16]: 0; Foxtail, Giant plant response rating [8, 17]: 0
5 | CCn1nc(C(F)(F)F)cc1-c1c(C#N)cccc1Oc1ncc(Cl)cn1 [Compound 89] | 20 | 50 | 0 | 10 | 0 | 70 | 0 | 30 | 70 | 90 | 100 | 30 | 0 | 0 | 40 | 90 | 0 | 0 | 80 | 30 | Plant response rating, Blackgrass [1, 16]: 10; Plant response rating, Galium [2, 16]: 10; Plant response rating, Wheat [3, 16]: 0; Plant response rating, Ragweed [4, 16]: 10; Ragweed plant response rating [4, 17]: 0; Plant response rating, Kochia (kochia (Kochia scoparia); [16]): 50; Kochia plant response rating (kochia (Kochia scoparia); [17]): 0; Plant response rating, Barnyardgrass [5, 16]: 10; Barnyardgrass plant response rating [5, 17]: 10; Plant response rating, Pigweed [6, 16]: 60; Pigweed plant response rating [6, 17]: 100; Plant response rating, Corn (corn (Zea mays); [16]): 10; Plant response rating, Ryegrass, Italian [7, 16]: 0; Ryegrass, Italian plant response rating [7, 17]: 0; Plant response rating, Foxtail, Giant [8, 16]: 10; Foxtail, Giant plant response rating [8, 17]: 40
